The structures appear in SMILES notation. Where two headings read alike, the source gives them in different places. Bounds are passed on as bounds.

For experiment [1], the system named is HL-60 cells (ATCC CCL-240). In words: Proliferation of HL-60 cells with or without hydroxyurea G1 arrest (WST-1). Type of experiment: cell-based, Human. Conditions: Homo sapiens, 48 hours. On the procedure: HL-60 cells (ATCC CCL-240) were suspended in RPMI 1640 medium (Bio Whittaker, 12-702F) containing 10% fetal calf serum (Gibco) and 100 μM hydroxyurea at a concentration of 5×10^5 cells/ml. 20 ml of the suspension was added to a 10-cm Petri dish. The dish was incubated at 37° C. overnight in the presence of 5% CO2 to make the cells arrest at G1 phase. The cells were collected by centrifugation and resuspended in RPMI 1640 medium containing 10% fetal calf serum (Gibco) and 100 μM hydroxyurea at a concentration of 5×10^5 cells/ml. 5 ml of the suspension was added to each well of a 6-well microtiter plate. On the other hand, as cells without the treatment with hydroxyurea, HL-60 cells were suspended in RPMI 1640 medium containing 10% fetal calf serum (Gibco) at a concentration of 1×10^5 cells/ml. 5 ml of the suspension was added to each well of a 6-well microtiter plate. 50 μl of a solution containing DGE at a concentration of 30, 22.5, 15 or 7.5 mM in water, 25 μl of a solution containing the compound (7) at a concentration of 60, 45, 30 or 15 mM in dimethyl sulfoxide, or 25 μl of a solution containing the compound (17) at a concentration of 100, 75, 50 or 25 mM in dimethyl sulfoxide was added to the well containing the cells treated with hydroxyurea. 50 μl of a solution containing DGE at a concentration of 8, 6, 4 or 2 mM in water, 25 μl of a solution containing the compound (7) at a concentration of 30, 22.5, 15 or 7.5 mM in dimethyl sulfoxide, or 25 μl of a solution containing the compound (17) at a concentration of 80, 60, 40 or 20 mM in dimethyl sulfoxide was added to the well containing the cells without the treatment with hydroxyurea. The plate was incubated for additional 48 hours. Cells collected by centrifuging the culture were suspended in 5 ml of fresh RPMI 1640 medium containing 10% fetal calf serum (Gibco). 100 μl of the suspension was used for measuring viable cell number using Premix WST-1 Cell Proliferation Assay System (Takara Shuzo, MK400).
For each of the samples, the concentration at which 50% of the proliferation is inhibited (IC50) for the cells treated with hydroxyurea was higher than that for the cells without the treatment with hydroxyurea. Table 3 summarizes IC50 (μM) for each of the samples. […] Since most of cells in a living body are arrested at G1 phase, it is considered that DGE and R-AhGal compounds (precursors of DGE) are agents less toxic to a living body.
In general terms: Tetrazolium dyes change colour on reduction, which living cells bring about.

The test system of experiment [2] is HL-60 (ATCC CCL-240) cells. Put plainly: Analysis of DNA fragmentation. Conditions: HL-60 cells, cultured for 24 or 48 hours (time not given). Format: cell-based, Human. On the procedure:
HL-60 (ATCC CCL-240) cells were cultured at 37° C. in RPMI 1640 medium (Bio Whittaker) containing 10% fetal calf serum (JRH) which had been treated at 56° C. for 30 minutes and suspended in RPMI 1640 medium at a concentration of 2.5×10^5 cells/4.5 ml. […] each of aqueous solutions of the compound (2) at a concentration of 10, 50 or 100 mM, the compound (7) at a concentration of 500, 1000 or 1500 μM, the compound (9) at a concentration of 750, 1500 or 3000 μM, the compound (11) at a concentration of 750, 1500 or 3000 μM, or the compound (14) at a concentration of 750, 1500 or 3000 μM was added to 4.5 ml of the suspension. The mixtures were incubated at 37° C. for 24 hours in the presence of 5% CO2. Measurement of apoptotic cells using FACScan as described in Saibo Kogaku, Bessatsu (Cell Technology, Suppl.) Jikken Protocol Series: Apoptosis Jikken Protocol (Experimental Protocol Series: Experimental Protocols for Apoptosis) (Shujun-sha) pp. 129-130 and analysis of DNA fragmentation as described in Bio Manual UP Series: […] Apoptosis Jikken-ho (Bio Manual UP Series: Current Experimental Methods for Apoptosis) (Yodo-sha) pp. 61-63 were carried out using cells cultured for 24 or 48 hours in the same manner as that described above.

Experiment [3] has as its system PGE2 production in celiac macrophages. Put plainly: PGE2 production of celiac macrophages from orally dosed mice. Format: in vivo. Conditions: 1% suspension in olive oil, forced oral administration once a day, 12 times in 15 days, 10 or 30 ml/kg, ddY mice. On the procedure:
The compound (7) in Example 1 was suspended in olive oil (Nacalai Tesque) at a concentration of 1% to prepare a 1% suspension of the compound (7). The 1% suspension of the compound (7) prepared as described above was administered to ddY mice (Japan SLC, female, 7 weeks old) by forced oral administration once a day, 12 times in 15 days, at a dosage of 10 or 30 ml/kg. Tap water was similarly administered by forced oral administration as a control. Each group consisted of 3 mice. Thereafter, 4 ml of RPMI 1640 medium (Bio Whittaker, Code. 12-702F) containing 10% fetal calf serum was intraperitoneally injected. Media removed from 3 mice after extensive massage were combined to obtain celiac cells. The celiac cells were suspended in RPMI 1640 medium containing 10% fetal calf serum at a concentration of 10^6 cells/ml. 500 μl of the suspension was added to each well of a 48-well microtiter plate and the plate was incubated at 37° C. for 2 hours in the presence of 5% CO2. Adhesive cells obtained by removing the culture supernatant were used as celiac macrophages. […] After the plate was incubated for additional 12 hours, the amount of prostaglandin E2 (PGE2) was measured. […] After cultivation, the amount of prostaglandin E2 in the culture supernatant was measured using Prostaglandin E2 ELISA Kit (Neogen, Code. 404110). […]

The mark [4] stands for this setting: HL-60 cells arrested at G1 phase with 100 μM hydroxyurea, read-out: IC50, Cells treated with hydroxyurea.
Setting [5] is: HL-60 cells, read-out: IC50, Cells without treatment with hydroxyurea.

What is called IC50 is the point on the concentration scale where inhibition reaches its midpoint. On to `O=C[C@H](O)[C@H]1OC[C@@H](O)[C@@H]1OC(=O)c1ccccc1` [Compound (7), 4-O-benzoyl-3,6-anhydro-D-galactose], for which the IC50 in experiment [1] (setting [4]) is 151 µM; in experiment [1] (setting [5]), 79.1 µM. Moreover, in experiment [2], the “final concentration at which DNA fragmentation was observed” value is not below 100 µM. Also, the “activity of inhibiting PGE2 production in celiac macrophages (LPS)” value in experiment [3] was “remarkable activity of inhibiting PGE2 production”.

Regarding `OCC1OC(OC2C(CO)OC(OC3C(CO)OC(OC4C(O)COC4C(O)C(O)O)C(O)C3O)C(O)C2O)C(O)C(O)C1O` [Compound (14), 4-O-β-maltotoriosyl-3,6-anhydro-D-galactose], the “final concentration at which DNA fragmentation was observed” value in experiment [2] was not below 75 µM.

Consider `O=C[C@H](O)[C@H]1OC[C@@H](O)[C@@H]1OCc1ccccc1` [Compound (17), 4-O-benzyl-3,6-anhydro-D-galactose], for which the half-maximal inhibitory concentration (IC50) in experiment [1] (setting [4]) amounted to 264 µM; in experiment [1] (setting [5]) it was 190 µM.
